Measured values published in patent US8633205B2, “Substituted pyrrolo[2,3-d]pyrimidines as inhibitors of protein kinases” (Vertex Pharmaceuticals Incorporated, priority 2005, dated 2014).
pKi: −log10 of the molar value.

Tests used:
Type in all cases: biochemical
JAK2 = JAK2 (Homo sapiens, UniProt O60674); test: JAK2 Inhibition Assay; conditions: 15 μM poly(Glu)4Tyr, 12 μM ATP; read-out: JAK2 enzyme inhibition (Ki)
Protocol: (§1) Compounds were screened for their ability to inhibit JAK using the […] below. Reactions were carried out in a kinase buffer containing 100 mM HEPES (pH 7.4), 1 mM DTT, 10 mM MgCl2, 25 mM NaCl, and 0.01% BSA.
(§2) Substrate concentrations in the assay were 5 μM ATP (200 uCi/μmole ATP) 1 μM poly(Glu)4Tyr. Reactions were carried out at 25 ° C. and 1 nM JAK3.
(§3) To each well of a 96 well polycarbonate plate was added 1.5 μl of a JAK3 inhibitor along with 50 μl of kinase buffer containing 2 μM poly(Glu)4Tyr and 10 μM ATP. This was then mixed and 50 μl of kinase buffer 2 nM JAK3 enzyme was added to start the reaction. After 20 minutes at room temperature (25C), the reaction was stopped with 50 μl of 20% trichloroacetic acid (TCA) that also contained 0.4 mM ATP. The entire contents of each well were then transferred to a 96 well glass fiber filter plate using a TomTek Cell Harvester. After washing, 60 μl of scintillation fluid was added and ^33P incorporation detected on a Perkin Elmer TopCount.
As described above in Example 11 except that JAK-2 enzyme is used, the final poly(Glu)4Tyr concentration is 15 μM, and final ATP concentration is 12 μM.

JAK3 = molecular target: T1, JAK3 (Homo sapiens, UniProt P52333); test: JAK3 Inhibition Assay; conditions: 1 μM poly(Glu)4Tyr, 5 μM ATP, 1 nM JAK3, 25 °C; read-out: JAK3 enzyme inhibition (Ki)
T1 sequence (P52333 1-1124): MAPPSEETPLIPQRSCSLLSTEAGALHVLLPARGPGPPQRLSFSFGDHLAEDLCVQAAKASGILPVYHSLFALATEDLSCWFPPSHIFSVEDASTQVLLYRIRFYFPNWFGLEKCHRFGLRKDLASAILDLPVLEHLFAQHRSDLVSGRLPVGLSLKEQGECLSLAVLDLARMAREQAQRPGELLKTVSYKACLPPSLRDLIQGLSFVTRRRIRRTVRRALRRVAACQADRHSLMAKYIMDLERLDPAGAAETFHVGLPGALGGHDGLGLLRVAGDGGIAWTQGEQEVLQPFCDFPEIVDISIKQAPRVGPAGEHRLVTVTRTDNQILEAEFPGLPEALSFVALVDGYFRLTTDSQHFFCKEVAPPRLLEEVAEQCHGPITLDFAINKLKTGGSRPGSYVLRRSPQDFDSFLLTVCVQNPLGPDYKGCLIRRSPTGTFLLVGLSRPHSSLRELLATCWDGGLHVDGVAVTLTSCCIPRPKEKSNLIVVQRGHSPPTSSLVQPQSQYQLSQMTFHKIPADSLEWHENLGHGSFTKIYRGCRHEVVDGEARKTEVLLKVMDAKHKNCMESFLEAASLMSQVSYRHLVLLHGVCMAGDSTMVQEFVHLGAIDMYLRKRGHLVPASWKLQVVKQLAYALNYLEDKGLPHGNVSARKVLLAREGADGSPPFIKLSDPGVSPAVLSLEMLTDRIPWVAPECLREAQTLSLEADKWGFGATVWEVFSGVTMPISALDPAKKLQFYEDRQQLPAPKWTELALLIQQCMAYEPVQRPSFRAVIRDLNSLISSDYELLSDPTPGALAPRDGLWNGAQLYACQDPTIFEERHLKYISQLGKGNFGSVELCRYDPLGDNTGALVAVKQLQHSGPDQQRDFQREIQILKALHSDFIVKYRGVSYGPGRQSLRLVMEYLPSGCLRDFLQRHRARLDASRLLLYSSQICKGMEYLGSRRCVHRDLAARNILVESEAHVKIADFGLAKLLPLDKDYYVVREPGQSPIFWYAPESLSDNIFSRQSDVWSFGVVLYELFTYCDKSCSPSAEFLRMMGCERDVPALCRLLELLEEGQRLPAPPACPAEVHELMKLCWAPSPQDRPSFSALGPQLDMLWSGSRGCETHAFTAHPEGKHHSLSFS
Protocol: as §1, §2, §3

PKA = PKA (Homo sapiens, UniProt P17612); test: PKA Inhibition Assay (coupled enzyme assay); conditions: 50 μM ATP, 80 μM Kemptide, 18 nM PKA, 30 °C
Protocol: Compounds were screened for their ability to inhibit PKA using a standard coupled enzyme assay (Fox et al., Protein Sci, 1998, 7, 2249). Assays were carried out in a mixture of 100 mM HEPES (pH 7.5), 10 mM MgCl2, 25 mM NaCl, 1 mM DTT and 3% DMSO. Final substrate concentrations in the assay were 50 μM ATP (Sigma Chemicals) and 80 μM peptide (Kemptide, American Peptide, Sunnyvale, Calif.). Assays were carried out at 30 ° C. and 18 nM PKA. Final concentrations of the components of the coupled enzyme system were 2.5 mM phosphoenolpyruvate, 300 μM NADH, 30 μg/ml pyruvate kinase and 10 μg/ml lactate dehydrogenase.
An assay stock buffer solution was prepared containing all of the reagents listed above, with the exception of ATP, and the test compound of the present invention. 55 μl of the stock solution was placed in a 96 well plate followed by addition of 2 μl of DMSO stock containing serial dilutions of the test compound of the present invention (typically starting from a final concentration of 5 μM). The plate was preincubated for 10 minutes at 30° C. and the reaction initiated by addition of 5 μl of ATP (final concentration 50 μM). Initial reaction rates were determined with a Molecular Devices SpectraMax Plus plate reader over a 15 minute time course. IC50 and Ki data were calculated from non-linear regression analysis using the Prism software package (GraphPad Prism version 3.0a for Macintosh, GraphPad Software, San Diego, Calif., USA).

ROCK = molecular target: T2, ROCK (Homo sapiens, UniProt Q13464); test: ROCK Inhibition Assays; conditions: read-out: ROCK enzyme inhibition (Ki)
T2 construct: ROCK I (AA 6-553)
Protocol: Compounds are screened for their ability to inhibit ROCK I (AA 6-553) activity using a standard coupled enzyme system (Fox et al. Protein Sci. 7: 2249, 1998). Reactions are carried out in a solution containing 100 mM HEPES (pH 7.5), 10 mM MgCl2, 25 mM NaCl, 2 mM DTT and 1.5% DMSO. Final substrate concentrations in the assay are 45 μM ATP (Sigma Chemicals, St Louis, Mo.) and 200 μM peptide (American Peptide, Sunnyvale, Calif.). Reactions are carried out at 30 ° C. and 45 nM ROCK I. Final concentrations of the components of the coupled enzyme system are 2.5 mM phosphoenolpyruvate, 350 μM NADH, 30 μg/ml pyruvate kinase and 10 μg/ml lactate dehydrogenase.
Compounds are screened for their ability to inhibit ROCK using a standard radioactive enzyme assay. Assays are carried out in a solution containing 100 mM HEPES (pH 7.5), 10 mM MgCl2, 25 mM NaCl, 2 mM DTT and 1.5% DMSO. Final substrate concentrations in the assay are 13 μM [γ-^33P] ATP (25 mCi ^33P ATP/mmol ATP, Perkin Elmer, Cambridge, Mass./Sigma Chemicals, St Louis, Mo.) and 27 μM Myelin Basic Protein (MBP). Final enzyme concentration in the assay is 5 nM ROCK. Assays are carried out at room temperature. 1.5 μl of DMSO stock containing serial dilutions of the compound of the present invention (concentrations ranging from 10 μM to 2.6 nM) is placed in a 96 well plate. 50 μl of Solution 1 (100 mM HEPES (pH 7.5), 10 mM MgCl2, […] [γ-^33P] ATP) is added to the plate. The reaction is initiated by addition of 50 μl of Solution 2 (100 mM HEPES (pH 7.5), 10 mM MgCl2, 4 mM DTT, […] and 10 nM ROCK). After 2 hours the reaction is quenched with 50 μL of 30% trichloroacetic acid (TCA, Fisher) containing 9 mM ATP. Transfer of 140 μL of the quenched reaction to a glass fiber filter plate (Corning, Cat. No.3511) is followed by washing 3 times with 5% TCA. 50 μL of Optima Gold scintillation fluid (Perkin Elmer) is added and the plates are counted on a Top Count (Perkin Elmer). After removing mean background values for all of the data points the data is fit using Prism software to obtain a Ki(app).

T2 sequence (Q13464 6-553): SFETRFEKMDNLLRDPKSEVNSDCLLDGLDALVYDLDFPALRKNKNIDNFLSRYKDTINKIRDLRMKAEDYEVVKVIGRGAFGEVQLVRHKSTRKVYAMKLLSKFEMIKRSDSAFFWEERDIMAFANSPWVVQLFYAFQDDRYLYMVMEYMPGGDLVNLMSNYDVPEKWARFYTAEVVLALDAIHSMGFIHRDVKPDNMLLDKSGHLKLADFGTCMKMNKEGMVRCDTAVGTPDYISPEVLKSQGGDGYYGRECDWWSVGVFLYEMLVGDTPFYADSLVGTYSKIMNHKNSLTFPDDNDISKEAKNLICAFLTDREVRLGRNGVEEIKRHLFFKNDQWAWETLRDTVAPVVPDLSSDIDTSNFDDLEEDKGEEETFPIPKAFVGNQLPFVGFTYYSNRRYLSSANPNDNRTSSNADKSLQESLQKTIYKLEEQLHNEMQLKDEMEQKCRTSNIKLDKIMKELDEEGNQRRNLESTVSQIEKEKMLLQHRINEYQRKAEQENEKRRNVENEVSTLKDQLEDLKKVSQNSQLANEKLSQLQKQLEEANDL
Sequence of JAK2 (O60674 whole entry): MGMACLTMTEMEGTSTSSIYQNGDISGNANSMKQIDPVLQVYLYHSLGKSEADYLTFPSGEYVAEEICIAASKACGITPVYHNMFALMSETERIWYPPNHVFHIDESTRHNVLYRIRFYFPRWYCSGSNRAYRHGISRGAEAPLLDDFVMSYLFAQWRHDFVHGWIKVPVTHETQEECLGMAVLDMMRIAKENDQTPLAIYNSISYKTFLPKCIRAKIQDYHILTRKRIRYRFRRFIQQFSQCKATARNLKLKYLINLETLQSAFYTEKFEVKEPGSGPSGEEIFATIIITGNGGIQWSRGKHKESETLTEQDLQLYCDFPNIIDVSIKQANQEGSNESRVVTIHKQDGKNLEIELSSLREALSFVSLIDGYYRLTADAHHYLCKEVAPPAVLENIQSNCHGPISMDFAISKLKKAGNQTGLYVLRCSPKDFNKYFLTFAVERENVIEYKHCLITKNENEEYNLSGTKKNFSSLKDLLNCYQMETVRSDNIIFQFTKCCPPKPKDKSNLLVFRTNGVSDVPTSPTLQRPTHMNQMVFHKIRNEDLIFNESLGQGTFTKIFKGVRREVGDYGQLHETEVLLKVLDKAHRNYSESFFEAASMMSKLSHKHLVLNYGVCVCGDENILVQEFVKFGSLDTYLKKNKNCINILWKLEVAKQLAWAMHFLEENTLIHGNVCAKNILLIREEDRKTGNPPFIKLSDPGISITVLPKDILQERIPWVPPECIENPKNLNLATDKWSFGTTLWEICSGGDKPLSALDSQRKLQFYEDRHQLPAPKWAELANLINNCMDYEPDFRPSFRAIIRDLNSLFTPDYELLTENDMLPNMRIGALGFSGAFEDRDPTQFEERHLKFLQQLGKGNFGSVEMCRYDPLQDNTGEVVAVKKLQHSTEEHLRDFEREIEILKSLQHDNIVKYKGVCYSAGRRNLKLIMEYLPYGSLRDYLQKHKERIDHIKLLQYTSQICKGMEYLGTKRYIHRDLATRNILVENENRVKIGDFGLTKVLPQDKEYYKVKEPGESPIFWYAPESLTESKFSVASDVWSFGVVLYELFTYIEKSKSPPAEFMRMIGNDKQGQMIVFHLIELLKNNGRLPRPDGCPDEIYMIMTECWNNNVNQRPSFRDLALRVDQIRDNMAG

| SMILES | pKi (JAK2) | pKi (JAK3) | pKi (PKA) | pKi (ROCK) |
| --- | --- | --- | --- | --- |
| C1=C(c2ncnc3[nH]ccc23)CCC1 [Compound 1, 4-cyclopentenyl-7H-pyrrolo[2,3-d]pyrimidine] | > 6.30 | > 6.30 | 5.30 to 6.30 | 5.30 to 6.30 |
| C=C(c1ccccc1)c1ncnc2[nH]ccc12 [Compound 8, 4-(1-phenylvinyl)-7H-pyrrolo[2,3-d]pyrimidine] | < 5.30 | 5.30 to 6.30 | 5.30 to 6.30 | 5.30 to 6.30 |
| COC(=O)C(C)Cc1ncnc2[nH]ccc12 (stereo not drawn) [Compound 24] | < 5.30 | < 5.30 | 5.30 to 6.30 | 5.30 to 6.30 |
| CC(=O)N1CC=C(c2ncnc3[nH]ccc23)CC1 [Compound 15] | < 5.30 | < 5.30 | 5.30 to 6.30 | 5.30 to 6.30 |
| c1nc(C2CCCC2)c2cc[nH]c2n1 [Compound 3, 4-cyclopentyl-7H-pyrrolo[2,3-d]pyrimidine] | 5.30 to 6.30 | 5.30 to 6.30 | 5.30 to 6.30 | 5.30 to 6.30 |
| C=C(c1ncnc2[nH]ccc12)C1CCCCC1 [Compound 12] | 5.30 to 6.30 | – | 5.30 to 6.30 | 5.30 to 6.30 |
| C1=C(c2ncnc3[nH]ccc23)CCCC1 [Compound 2] | > 6.30 | > 6.30 | 5.30 to 6.30 | 5.30 to 6.30 |
| CC(C)CCc1ncnc2[nH]ccc12 [Compound 31] | > 6.30 | > 6.30 | 5.30 to 6.30 | 5.30 to 6.30 |
| CC(c1ccccc1)c1ncnc2[nH]ccc12 (stereo not drawn) [Compound 23] | 5.30 to 6.30 | 5.30 to 6.30 | 5.30 to 6.30 | 5.30 to 6.30 |
| c1nc(C2CC3CCC2C3)c2cc[nH]c2n1 (stereo not drawn) [Compound 26, 4-Bicyclo[2.2.1]hept-2-yl-7H-pyrrolo[2,3-d]pyrimidine] | > 6.30 | > 6.30 | 5.30 to 6.30 | 5.30 to 6.30 |
| CC(C)Cc1ncnc2[nH]ccc12 [Compound 25] | 5.30 to 6.30 | 5.30 to 6.30 | 5.30 to 6.30 | 5.30 to 6.30 |
| C(=C\c1ncnc2[nH]ccc12)/c1ccccc1 [Compound 4, 4-styryl-7H-pyrrolo[2,3-d]pyrimidine] | > 6.30 | > 6.30 | 5.30 to 6.30 | 5.30 to 6.30 |
| CC1CC=C(c2ncnc3[nH]ccc23)C1C (stereo not drawn) [Compound 19] | > 6.30 | > 6.30 | 5.30 to 6.30 | 5.30 to 6.30 |
| c1nc(CC2CCCCC2)c2cc[nH]c2n1 [Compound 27] | > 6.30 | > 6.30 | 5.30 to 6.30 | 5.30 to 6.30 |
| C=C(c1ncnc2[nH]ccc12)C1CCCN(C(=O)OC(C)(C)C)C1 (stereo not drawn) [Compound 22] | 5.30 to 6.30 | 5.30 to 6.30 | 5.30 to 6.30 | 5.30 to 6.30 |
| c1nc(CCC2OCCCO2)c2cc[nH]c2n1 [Compound 29] | 5.30 to 6.30 | 5.30 to 6.30 | 5.30 to 6.30 | 5.30 to 6.30 |
| C=Cc1ncnc2[nH]ccc12 [Compound 14] | 5.30 to 6.30 | 5.30 to 6.30 | 5.30 to 6.30 | 5.30 to 6.30 |
| C1=C(c2ncnc3[nH]ccc23)C2CCC1C2 (stereo not drawn) [Compound 21] | > 6.30 | > 6.30 | 5.30 to 6.30 | 5.30 to 6.30 |
| Clc1ccc(/C=C/c2ncnc3[nH]ccc23)cc1 [Compound 6, 4-(4-chlorostyryl)-7H-pyrrolo[2,3-d]pyrimidine] | > 6.30 | > 6.30 | 5.30 to 6.30 | 5.30 to 6.30 |
| CC(C)(C)OC(=O)N1CC=C(c2ncnc3[nH]ccc23)CC1 [Compound 9] | > 6.30 | > 6.30 | 5.30 to 6.30 | 5.30 to 6.30 |
| N#CCCCCc1ncnc2[nH]ccc12 [Compound 28] | 5.30 to 6.30 | 5.30 to 6.30 | 5.30 to 6.30 | 5.30 to 6.30 |
| Fc1ccc(/C=C/c2ncnc3[nH]ccc23)cc1 [Compound 5, 4-(4-fluorostyryl)-7H-pyrrolo[2,3-d]pyrimidine] | > 6.30 | > 6.30 | 5.30 to 6.30 | 5.30 to 6.30 |
| CC1CCCC=C1c1ncnc2[nH]ccc12 (stereo not drawn) [Compound 11] | 5.30 to 6.30 | > 6.30 | 5.30 to 6.30 | 5.30 to 6.30 |
| C=C(c1ncnc2[nH]ccc12)C1CCCC1 [Compound 18] | > 6.30 | > 6.30 | 5.30 to 6.30 | 5.30 to 6.30 |
| N#CCC(=O)N1CC=C(c2ncnc3[nH]ccc23)CC1 [Compound 17] | > 6.30 | 5.30 to 6.30 | 5.30 to 6.30 | 5.30 to 6.30 |
